Results: patent publication US5399697A, “N,N',N'-trisubstituted-5-bisaminomethylene-1,3-dioxane-4,6-dione inhibitors of acyl-CoA:cholesterol-acyl transferase” (American Home Products Corporation, priority 1993, dated 1995)
Read-outs that look alike come from different tables or passages of the source.

System: acyl-coenzyme A: cholesterol acyltransferase
Assay: Inhibition of ACAT / intracellular cholesterol esterification in vitro (procedure of Ross et al.)
Assay type: cell-based

SMILES	% Inhibition (25 μM) [%]	IC50 (read-out: IC50) [nM]	IC50 [nM]	% Inhibition (50 μM) [%]
CCCCCC(C)N(Cc1ccc(CCC(C)C)cc1)C(Nc1ccc(N(C)C)cc1C)=C1C(=O)OC(C)(C)OC1=O (stereo not shown) [Compound 61]	98	160	–	–
COc1ccc(NC(=C2C(=O)OC(C)(C)OC2=O)N(Cc2ccc(CC(C)C)cc2)[C@@H](CO)Cc2ccccc2)c(OC)c1 [Compound 12, (R)-5-[[(2,4-Dimethoxyphenyl)amino][[(1R)1-(hydroxymethyl)-2-phenylethyl][[4-(2-methyl-propyl)phenyl]methyl]amino]methylene]-2,2-dimethyl-1,3-dioxane-4.6-dione]	96	–	–	–
CCCCCCCN(Cc1ccc(C(C)(C)C)cc1)C(Nc1ccc(OCCCCCC)cc1)=C1C(=O)OC(C)(C)OC1=O [Compound 25, 5-[[[[4-(1,1-Dimethylethyl)phenyl]methyl]heptylamino][[4-(hexyloxy)phenyl]amino]methylene]2,2-dimethyl-3-dioxane-4,6-dione]	94	500	–	–
CCCCc1ccc(CN(C(Nc2ccc(OC)cc2OC)=C2C(=O)OC(C)(C)OC2=O)C(C)CCCC(C)(C)O)cc1 (stereo not shown) [Compound 44, 5-[[[(4-Butylphenyl)methyl](5-hydroxy-1,5-dimethylhexyl)amino][(2,4-dimethoxyphenyl)-amino]methylene]-2,2-dimethyl-1,3-dioxane-4,6-dione]	82	15000	–	–
COc1ccc(NC(=C2C(=O)OC(C)(C)OC2=O)N(Cc2ccc(CC(C)C)cc2)[C@@H](CO[Si](C)(C)C(C)(C)C)Cc2ccccc2)c(OC)c1 [Compound 11]	98	–	2800	–
CCCCCCCN(Cc1ccc(C(C)(C)C)cc1)C(Nc1ccc(F)cc1F)=C1C(=O)OC(C)(C)OC1=O [Compound 15]	–	–	–	63
CCCCCCCN(Cc1ccc(C(C)(C)C)cc1)C(Nc1ccc(OCCCCC)cc1)=C1C(=O)OC(C)(C)OC1=O [Compound 24]	96	2300	–	–
CCCCCCCN(Cc1ccc(C(C)(C)C)cc1)C(Nc1ccc(C(F)(F)F)cc1)=C1C(=O)OC(C)(C)OC1=O [Compound 30, 5-[[[[4-(1,1-Dimethylethyl)phenyl]methyl]heptylamino][[4-(trifluoromethyl)phenyl]amino]-methylene]-2,2-dimethyl-1,3-dioxane-4,6-dione]	42	–	–	–
CCCCCC(C)N(Cc1ccc(CC(C)(C)C)cc1)C(Nc1ccc(C)cc1C)=C1C(=O)OC(C)(C)OC1=O (stereo not shown) [Compound 64]	99	490	–	–
CCCCCCN(CCCCCC)C(Nc1ccc(OC)cc1OC)=C1C(=O)OC(C)(C)OC1=O [Compound 1, 5-[(Dihexylamino)[(2,4-dimethoxyphenyl)amino]methylene]-2,2-dimethyl-1,3-dioxane-4,6-dione]	–	–	–	65
CCCCC(CC)N(Cc1ccc(CC(C)(C)C)cc1)C(Nc1ccc(OC)cc1OC)=C1C(=O)OC(C)(C)OC1=O (stereo not shown) [Compound 60, 5-[[(2,4-Dimethoxyphenyl)amino][[[4-(2,2-dimethylpropyl)phenyl]methyl](1-ethylpentyl)amino]-methylene]-2,2-dimethyl-1,3-dioxane-4,6-dione]	99	540	–	–
CC1(C)OC(=O)C(=C(Nc2cccnc2)Nc2cc(C(C)(C)C)c(O)c(C(C)(C)C)c2)C(=O)O1 [Compound 82]	–	–	–	94
CC(C)Cc1ccc(CN(C(Nc2ccc(N(C)C)cc2)=C2C(=O)OC(C)(C)OC2=O)C(C)CN2CCOCC2)cc1 (stereo not shown) [Compound 51]	66	–	–	–
CCCCCCCN(Cc1ccc(CCCCC)cc1)C(Nc1ccc(C(F)(F)F)cc1)=C1C(=O)OC(C)(C)OC1=O [Compound 17, 5-[[[4-(Trifluoromethyl)phenyl]amino][heptyl[(4-pentylphenyl)methyl]amino]methylene]-2,2-dimethyl-1,3-dioxane-4,6-dione]	72	–	–	–
CCCCCCN(CCCCCC)C(Nc1ccc(F)cc1)=C1C(=O)OC(C)(C)OC1=O [Compound 3, 5-[(Dihexylamino)[(4-fluorophenyl)amino]methylene]-2,2-dimethyl-1,3-dioxane-4,6-dione]	–	9000	–	77
CCCCC(CC)N(Cc1ccc(CC(C)(C)C)cc1)C(Nc1ccc(N(C)C)cc1)=C1C(=O)OC(C)(C)OC1=O (stereo not shown) [Compound 62]	99	640	–	–
COc1ccc(NC(=C2C(=O)OC(C)(C)OC2=O)N(Cc2ccc(CC(C)C)cc2)C(C)CN2CCOCC2)c(OC)c1 (stereo not shown) [Compound 50, 5-[[(2,4-Dimethoxyphenyl)amino][[1-methyl-2-(4-morpholinyl)ethyl][[4-(2-methylpropyl)-phenyl]methyl]amino]methylene]-2,2-dimethyl-1,3-dioxane-4,6-dione]	74	–	–	–
CCCCC(CC)N(Cc1ccc(CC(C)(C)C)cc1)C(Nc1ccc(N(C)C)cc1C)=C1C(=O)OC(C)(C)OC1=O (stereo not shown) [Compound 66, 5-[[[4-(Dimethylamino)-2-methylphenyl]amino][[[4-(2,2-dimethylpropyl)phenyl]methyl](1-ethylpentyl)amino]methylene]-2,2-dimethyl-1,3-dioxane-4,6-dione]	98	190	–	–
COc1ccc(NC(=C2C(=O)OC(C)(C)OC2=O)N(Cc2ccc(CC(C)C)cc2)[C@@H](CO[Si](C)(C)C(C)(C)C)CC(C)C)c(OC)c1 [Compound 71]	97	–	530	–

SMILES	% Inhibition (25 μM) [%]	IC50 (read-out: IC50) [nM]	IC50 [nM]	% Inhibition (50 μM) [%]
CN(C(Nc1cc(C(C)(C)C)c(O)c(C(C)(C)C)c1)=C1C(=O)OC(C)(C)OC1=O)c1ccccn1 [Compound 83]	–	–	–	86
CCCCCC(C)N(Cc1ccc(CCC(C)C)cc1)C(Nc1ccc(OC)cc1OC)=C1C(=O)OC(C)(C)OC1=O (stereo not shown) [Compound 56, 5-[[(2,4-Dimethoxyphenyl)amino][[[4-(3-methylbutyl)phenyl]methyl](1-methylhexyl)amino]-methylene]-2,2-dimethyl-1,3-dioxane-4,6-dione]	97	1400	–	–
CCCCCCCCCCN(Cc1ccc(C(C)(C)C)cc1)C(Nc1ccc(OC)cc1OC)=C1C(=O)OC(C)(C)OC1=O [Compound 65]	98	2300	–	–
CCCCCCCN(Cc1ccc(C(C)(C)C)cc1)C(Nc1c(C)cc(N(C)C)cc1C)=C1C(=O)OC(C)(C)OC1=O [Compound 16, 5-[[[4-(Dimethylamino)-2,6-dimethylphenyl]amino][[[4-(1,1-dimethylethyl)phenyl]methyl]heptylamino]methylene]-2,2-dimethyl-1,3-dioxane-4,6-dione]	84	980	–	–
CCCCCCCN(Cc1ccc(C(C)(C)C)cc1)C(Nc1ccc(OCCCC)cc1)=C1C(=O)OC(C)(C)OC1=O [Compound 19]	98	2400	–	–
CCCCCCCC/C=C\CCCCCCCCN(Cc1ccc(C(C)(C)C)cc1)C(Nc1ccc(OC)cc1OC)=C1C(=O)OC(C)(C)OC1=O [Compound 70, 5-[[(2,4-Dimethoxyphenyl)amino][[[4-(1,1-dimethylethyl)phenyl]methyl]((Z)-9-octadecenyl)-amino]methylene]-2,2-dimethyl-1,3-dioxane-2,4-dione]	24	–	–	–
CCCCCC(C)N(Cc1ccc(C(C)(C)C)cc1)C(Nc1cc(OC)c(OC)c(OC)c1)=C1C(=O)OC(C)(C)OC1=O (stereo not shown) [Compound 20]	96	770	–	–
CCCCCC(C)N(Cc1ccc(CCC(C)C)cc1)C(Nc1ccc(N(C)C)cc1)=C1C(=O)OC(C)(C)OC1=O (stereo not shown) [Compound 57, 5-[[[4-(Dimethylamino)phenyl]amino][[[4-(3-methylbutyl)phenyl]methyl](1-methylhexyl)-amino]methylene]-2,2-dimethyl-1,3-dioxane-4,6-dione]	96	410	–	–
CCCCCC(C)N(Cc1ccc(CC(C)C)cc1)C(Nc1cc(C(C)(C)C)c(O)c(C(C)(C)C)c1)=C1C(=O)OC(C)(C)OC1=O (stereo not shown) [Compound 13]	99	190	–	–
CCCCCCCN(Cc1ccc(OCCC(C)C)cc1)C(Nc1cc(OC)c(OC)c(OC)c1)=C1C(=O)OC(C)(C)OC1=O [Compound 23]	85	3500	–	–
CCCCCCCN(Cc1ccc(C(C)(C)C)cc1)C(Nc1cc(OC)c(OC)c(OC)c1)=C1C(=O)OC(C)(C)OC1=O [Compound 69]	98	2800	–	–
CCCCCC(C)N(Cc1ccc(OCC(C)C)cc1)C(Nc1ccc(OC)cc1OC)=C1C(=O)OC(C)(C)OC1=O (stereo not shown) [Compound 58, 5-[[(2,4-Dimethoxyphenyl)amino][(1-methylhexyl)[[4-(2-methylpropoxy)phenyl]methyl]-amino]methylene]-2,2-dimethyl-1,3-dioxane-4,6-dione]	99	550	–	–
CCCCCCCN(Cc1ccc(C(C)(C)C)cc1)C(Nc1ccc(OCc2ccccc2)cc1)=C1C(=O)OC(C)(C)OC1=O [Compound 26]	92	920	–	–
CC(C)CCc1ccc(CN(C(Nc2ccc(N(C)C)cc2)=C2C(=O)OC(C)(C)OC2=O)C(CC(C)C)CC(C)C)cc1 [Compound 73, 5-[[[4-(Dimethylamino)phenyl]amino][[[4-(3-methylbutyl)phenyl]methyl][3-methyl-1-(2-methylpropyl)butyl]amino]methylene]-2,2-dimethyl-1,3-dioxane-4,6-dione]	97	1300	–	–
CCCCCC(C)N(Cc1ccc(OCC(C)C)cc1)C(Nc1ccc(C)cc1C)=C1C(=O)OC(C)(C)OC1=O (stereo not shown) [Compound 68]	98	280	–	–
CC(C)Cc1ccc(CN(C(Nc2ccc(N(C)C)cc2)=C2C(=O)OC(C)(C)OC2=O)C2CCN(Cc3ccccc3)CC2)cc1 [Compound 49, 5-[[[4-(Dimethylamino)phenyl]amino][[[4-(2-methylpropyl)phenyl]methyl][1-(phenylmethyl)-4-piperidinyl]amino]methylene]-2,2-dimethyl-1,3-dioxane-4,6-dione]	80	4500	–	–
COc1ccc(NC(=C2C(=O)OC(C)(C)OC2=O)N(Cc2ccc(CCC(C)C)cc2)C(CC(C)C)CC(C)C)c(OC)c1 [Compound 72, 5-[[(2,4-Dimethoxyphenyl)amino][[[4-(3-methylbutyl)phenyl]methyl][-3-methyl-1-(2-methylpropyl)butyl]amino]methylene]-2,2-dimethyl-1,3-dioxane-4,6-dione]	98	1300	–	–
CCCCCC(C)N(Cc1ccc(OCC(C)C)cc1)C(Nc1ccc(N(C)C)cc1)=C1C(=O)OC(C)(C)OC1=O (stereo not shown) [Compound 63]	99	90	–	–
